Key:
ERα = molecular target: T1, ERα (Homo sapiens, UniProt P03372); assay: ERα CALUX reporter gene assay; assay type: cell-based; set-up: key: –: no effect observed up to the highest test concentration; conditions: PC10, 24 h exposure
T1 construct: expression construct for the full-length human receptor under investigation; expressed in transfected cells; host or cells: human U2-OS cells (ATCC HTB-96), stably transfected
T1 sequence (P03372 1-595): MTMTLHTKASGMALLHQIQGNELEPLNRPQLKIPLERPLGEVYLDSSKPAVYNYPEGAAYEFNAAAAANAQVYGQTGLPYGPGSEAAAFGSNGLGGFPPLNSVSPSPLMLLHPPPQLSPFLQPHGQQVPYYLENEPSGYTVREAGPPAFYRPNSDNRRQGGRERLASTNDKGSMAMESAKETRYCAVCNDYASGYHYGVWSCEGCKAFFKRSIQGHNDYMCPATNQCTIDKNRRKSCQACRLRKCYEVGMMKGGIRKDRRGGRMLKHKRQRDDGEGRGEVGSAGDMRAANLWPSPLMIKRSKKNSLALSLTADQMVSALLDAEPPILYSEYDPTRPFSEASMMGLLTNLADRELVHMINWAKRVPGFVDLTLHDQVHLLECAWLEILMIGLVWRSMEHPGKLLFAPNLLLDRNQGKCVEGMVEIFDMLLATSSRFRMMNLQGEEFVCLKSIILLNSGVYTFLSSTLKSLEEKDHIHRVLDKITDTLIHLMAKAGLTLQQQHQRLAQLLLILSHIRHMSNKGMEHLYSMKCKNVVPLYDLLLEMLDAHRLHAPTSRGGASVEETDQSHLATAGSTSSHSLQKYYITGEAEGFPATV
From the text: Toluene ≥99.0%, hexane ≥99.5%,
DCM ≥99.5%, chloroform ≥99.5%, DMSO ≥99.0% were purchased from VWR. N,N-diethyl-4-nitroaniline ≥98.0% was purchased from Alfa Aeser. Cyrene was supplied by Circa group. N-butylpyrrolidinone was supplied by Eastman chemicals. N,N-dimethylformamide 99.9% and N,N-dimethylacetamide 99.9% were purchased from Fischer. The flakes of Ultrason® E3020 P Polyarylethersulfone of 55,000 Da were obtained from INGE.BASF, Germany. The CALUX cell lines have been described previously.[1] They are based on human U2-OS cells (ATCC, HTB-96) stably transfected with an expression construct for the full-length human receptor under investigation, and a reporter construct consisting of multimerized responsive elements for the cognate receptor coupled to a minimal promoter element (TATA) and a luciferase gene. Cells were maintained as described previously,[2] using cell culture media and supplements from Fisher Scientific as described in the experimental procedures section. […]
(§1) In vitro reporter gene assays
(§2) The automated CALUX assays were carried out similarly as described earlier,[12] with some adaptations. In brief, the assay was performed in CO2 independent medium (Fisher Scientific, […]
(§3) supplement (Fisher Scientific, 11574466), 10 U/mL penicillin and 10 µg/mL streptomycin. A cell suspension in assay medium was made of 1 × 10^5cells/mL, and white 384-wells plates were seeded with 30 µl cell suspension/well. After 24 h, exposure medium was prepared. A dilution series in 0.5log unit increments of each test compound (in DMSO) was added to a 96-wells plate containing assay medium (2% v/v). Of this exposure mixture, 30 µl was added to the assay plates containing the CALUX cells, resulting in a final DMSO concentration of 1%. Additionally, DMSO blanks and a full dose response curve of the relevant reference compound were included on each plate. All samples were tested in triplicate. The preparation of the compound dilution series as well as the exposure of the cells were performed on a Hamilton StarLET liquid handling robot coupled to a Cytomat incubator.
(§4) Directly after exposure, plates were sealed with non-breathing plate seals (Plate sealer, easy seal transparent; Greiner-Bio-One, 676001). After 24 h the exposure medium was removed using an EL406 washer-dispenser (BioTek) and 10 µl/well triton lysisbuffer was added by the EL406.
(§5) Subsequently, the luciferase signal was measured in a luminometer (InfinitePro coupled to a Connect Stacker, both TECAN). In order to be able to detect receptor antagonism, several assays were also performed in antagonistic mode. The assay procedure was as described above, with the only exception that the EC50 concentration of the reference agonist was present during the exposure.
(§6) The luminometer data was analysed as follows; the average of the triplicate wells was determined, and the average blank (DMSO) value was subtracted. For receptor-based assays the maximum response elicited by the reference compound was set to 100% (full receptor- or pathway activation), and the other values were scaled accordingly. […] For antagonist- and cytotoxicity experiments, PC20 values were determined instead, which was defined as the concentration where the test compound causes a 20% decrease in the basal signal, which was […]
(§7) curve, the signal induction above background (DMSO) was determined, and the concentration where the compound elicited a 1.5-fold increase above background was used as LEC.

AP1 = AP1 CALUX assay (cell cycle control); assay type: cell-based, human; set-up: key: –: no effect observed up to the highest test concentration; conditions: cell signaling pathway assay, 24 h exposure
From the text: (§8) Six of the CALUX assays (TCF through p53) detect activation of several cellular signaling pathways, which are indicative of general stress and acute toxicity, but also a range of more specific types of toxicity, including reproductive toxicity. […]
(§9) DCM ≥99.5%, chloroform ≥99.5%, DMSO ≥99.0% were purchased from VWR. […]
(§10) Polyarylethersulfone of 55,000 Da were obtained from INGE.BASF, Germany. The CALUX cell lines have been described previously.[1] They are based on human U2-OS cells (ATCC, HTB-96) stably transfected with an expression construct for the full-length human receptor under investigation, and a reporter construct consisting of multimerized responsive elements for the cognate receptor coupled to a minimal promoter element (TATA) and a luciferase gene. Cells were maintained as described previously,[2] using cell culture media and supplements from Fisher Scientific as described in the experimental procedures section. […]
as §1, §2, §3, §4, §5
as §6, with “accordingly. GraphPad Prism was used to fit a sigmoidal curve through the data (four parameters, variable slope).” for “accordingly.”
as §7

p53 = p53 CALUX assay; assay type: cell-based, human; set-up: key: –: no effect observed up to the highest test concentration; conditions: cell signaling pathway assay, 24 h exposure
From the text: as §8, §9, §10, §1, §2, §3, §4, §5
as §6, with “accordingly. GraphPad Prism was used to fit a sigmoidal curve through the data (four parameters, variable slope).” for “accordingly.”
as §7

[1] = shake flask; GC analysis of both layers with diglyme internal standard (SI); conditions: not told

LEC ERα (ERα) | SMILES | LEC AP1 (AP1) | LEC p53 (p53) | log partition 1-octanol / water [1]
– | CCCCN(CC)C(=O)CCC(=O)N(CC)CCCC [EBSA, N,N′‐diethyl‐N,N′‐dibutylsuccindiamide] | – | – | 2.72 log10 of concentration ratio (GC peak-area ratio)
– | CN1CCCC1=O [NMP, N‐methyl‐2‐pyrrolidone, reference compound] | −1.5 Log M | – | 
– | CCCCN(C)C(=O)CCC(=O)N(C)CCCC [MBSA, N,N′‐dimethyl‐N,N′‐dibutylsuccindiamide] | – | – | 1.65 log10 of concentration ratio (GC peak-area ratio)
– | CCCCN(CCCC)C(=O)CCC(=O)N(CCCC)CCCC [TBSA, N,N,N′,N′‐tetrabutylsuccindiamide] | – | – | 3.77 log10 of concentration ratio (GC peak-area ratio)
– | CCCCN1CCCC1=O [NBP, N‐Butylpyrrolidinone, reference compound] | – | – | 0.99 log10 of concentration ratio (GC peak-area ratio)

— PMC7318222, “A Family of Water‐Immiscible, Dipolar Aprotic, Diamide Solvents from Succinic Acid” (Chemsuschem, 2020)
